The values that follow come from ChEMBL document CHEMBL1136059 (Bioorg Med Chem Lett, 2002).

Test [1] has as its target T1, Prostaglandin G/H synthase 2 (Homo sapiens, UniProt P35354).
T1 sequence (P35354 whole entry): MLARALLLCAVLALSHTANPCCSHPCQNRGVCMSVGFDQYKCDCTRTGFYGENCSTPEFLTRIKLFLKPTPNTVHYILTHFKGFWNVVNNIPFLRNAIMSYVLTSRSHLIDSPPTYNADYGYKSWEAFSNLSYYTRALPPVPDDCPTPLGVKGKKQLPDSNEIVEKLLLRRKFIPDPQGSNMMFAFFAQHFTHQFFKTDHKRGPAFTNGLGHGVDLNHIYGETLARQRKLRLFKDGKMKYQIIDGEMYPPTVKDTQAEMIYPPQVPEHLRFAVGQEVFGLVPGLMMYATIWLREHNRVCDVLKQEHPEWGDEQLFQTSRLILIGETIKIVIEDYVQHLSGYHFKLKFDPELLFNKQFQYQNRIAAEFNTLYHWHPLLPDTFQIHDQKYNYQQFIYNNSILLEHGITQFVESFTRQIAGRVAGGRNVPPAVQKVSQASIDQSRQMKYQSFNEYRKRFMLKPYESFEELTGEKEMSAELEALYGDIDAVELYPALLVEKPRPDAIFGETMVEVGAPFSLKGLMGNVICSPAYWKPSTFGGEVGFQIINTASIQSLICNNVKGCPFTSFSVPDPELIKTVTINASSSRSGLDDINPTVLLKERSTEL
Type of test: functional.

Test [2] concerns the target T2, Prostaglandin G/H synthase 1 (Homo sapiens, UniProt P23219). In kind it is functional.
For test [3], the target named is T2, Prostaglandin G/H synthase 1. Kind of test: In vitro inhibition of cyclooxygenase-1 via inhibition of TXB2 generation in the presence of 1 uM arachidonic acid in human platelets at concentration of 10 uM. Type of test: functional.
In test [4] the target is T3, Prostaglandin G/H synthase 2 (Homo sapiens) (UniProt P35354).
T3 sequence (whole entry): T1 sequence (P35354 whole entry)
Kind of test: In vitro inhibition of cyclooxygenase-2 via inhibition of PGE-2 generation by LPS-stimulated monocytes isolated from human blood at a concentration of 20 uM. In kind it is functional.

The target in test [5] is T2, Prostaglandin G/H synthase 1. Description: In vitro inhibition of cyclooxygenase-1 via inhibition of TXB2 generation in the presence of 1 uM arachidonic acid in human platelet. Type of test: functional.
The target in test [6] is T1, Prostaglandin G/H synthase 2. Kind of test: In vitro inhibition of cyclooxygenase-2 via inhibition of PGE-2 generation by LPS-stimulated monocytes isolated from human blood; inactive. In kind it is functional.
The target of test [7] is T3, Prostaglandin G/H synthase 2 (Homo sapiens). Kind of test: In vitro inhibition of cyclooxygenase-2 via inhibition of PGE-2 generation by LPS-stimulated monocytes isolated from human blood at concentration of 20 uM. In kind it is functional.
The target in test [8] is T2, Prostaglandin G/H synthase 1. Kind of test: In vitro inhibition of cyclooxygenase-1 via inhibition of TXB2 generation in the presence of 1 uM arachidonic acid in human platelets. In kind it is functional.
For test [9] the target is unchanged. Kind of test: In vitro inhibition of cyclooxygenase-1 via inhibition of TXB2 generation in the presence of 1 uM arachidonic acid in human platelets.
Test [10] concerns the target T1, Prostaglandin G/H synthase 2. Kind of test: Tested in vitro for inhibition of cyclooxygenase-2 in human blood assay. In kind it is functional.
The target in test [11] is T2, Prostaglandin G/H synthase 1. Kind of test: Tested in vitro for inhibition of cyclooxygenase-1 in human blood assay. Type of test: functional.
In test [12] the target is T3, Prostaglandin G/H synthase 2 (Homo sapiens). Description: In vitro inhibition of cyclooxygenase-2 via inhibition of PGE-2 generation by LPS-stimulated monocytes isolated from human blood. Type of test: functional.

T2 sequence (P23219 whole entry): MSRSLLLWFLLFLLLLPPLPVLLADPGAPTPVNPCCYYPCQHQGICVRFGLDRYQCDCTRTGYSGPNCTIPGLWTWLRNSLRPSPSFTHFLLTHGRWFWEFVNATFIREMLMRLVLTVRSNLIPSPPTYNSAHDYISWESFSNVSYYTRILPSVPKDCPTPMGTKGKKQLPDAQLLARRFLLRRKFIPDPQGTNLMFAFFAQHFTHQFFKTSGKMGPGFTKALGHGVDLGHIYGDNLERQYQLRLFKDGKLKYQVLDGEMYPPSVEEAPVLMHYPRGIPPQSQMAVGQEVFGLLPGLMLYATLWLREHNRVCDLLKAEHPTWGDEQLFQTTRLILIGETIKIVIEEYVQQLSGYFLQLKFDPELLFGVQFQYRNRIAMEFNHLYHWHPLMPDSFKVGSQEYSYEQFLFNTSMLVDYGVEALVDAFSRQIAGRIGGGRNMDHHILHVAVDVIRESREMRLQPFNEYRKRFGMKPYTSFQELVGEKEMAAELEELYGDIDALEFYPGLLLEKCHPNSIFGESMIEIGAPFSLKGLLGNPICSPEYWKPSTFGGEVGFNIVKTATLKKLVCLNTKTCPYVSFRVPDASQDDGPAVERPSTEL

For orientation: IC50 means the point on the concentration scale where inhibition reaches its midpoint. On to `CC(C)=Cc1cc(/C=C/S(N)(=O)=O)cc(C(=O)c2ccccc2)c1`, for which the results for the IC50 in test [1] and in test [2] were 0.98 µM and 3.6 µM, respectively.

For `CCc1ccc(/C=C/S(N)(=O)=O)cc1C(=O)c1ccccc1`, the IC50 in [1] was 0.77 µM; in test [2], 0.2 µM. By inhibition is commonly meant the relative decrease from the control value, in per cent. Consider `NS(=O)(=O)/C=C/c1cccc(C(=O)c2ccccc2)c1`, for which the inhibition was 0% in test [3] and 37% in test [4]. Consider `CCc1cc(/C=C/C(N)=O)cc(C(=O)c2ccccc2)c1`, for which the results for the IC50 in test [1] and in [5] were 1.8 µM and 0.074 µM, respectively. Consider `NS(=O)(=O)/C=C/c1cc(CO)cc(C(=O)c2ccccc2)c1`, for which the IC50 in test [2] was 5.4 µM. `CC(C(=O)O)c1cc(/C=C/S(C)(=O)=O)cc(C(=O)c2ccccc2)c1` (stereo not given) returned an IC50 in test [1] of 9.7 µM. With `CS(=O)(=O)/C=C/c1cccc(C(=O)c2ccccc2)c1`, the IC50 result in [6] is “Not Active”.

As for `N#Cc1cc(/C=C/S(N)(=O)=O)cc(C(=O)c2ccccc2)c1`, the IC50 worked out at 5.6 µM in [1] and 1.7 µM in test [2]. Regarding `CCN(CC)Cc1cc(/C=C/S(N)(=O)=O)cc(C(=O)c2ccccc2)c1`, half-maximal inhibition in test [1] (IC50) required 7.1 µM. As for `CS(=O)(=O)c1ccc(C2=C(c3ccccc3)C(=O)OC2)cc1`, in test [3], the inhibition came to 0%. For the compound `NS(=O)(=O)/C=C/c1ccc(C(=O)c2ccccc2)cc1CO`, in [3], the inhibition amounted to 25%. In addition, in [1], half-maximal inhibition (IC50) required 8.4 µM.

In the case of `Cc1cc(C(=O)c2ccccc2)ccc1/C=C/S(N)(=O)=O`, the inhibition in test [7] is 14%; in [3], 0%. `CCOC(=O)/C=C/c1cc(CC)cc(C(=O)c2ccccc2)c1`: in test [1], the concentration for half-maximal inhibition (IC50) was 5 µM.

For `CC(=O)c1cc(/C=C/S(N)(=O)=O)cc(C(=O)c2ccccc2)c1`, the IC50 in test [1] amounted to 20 µM; in test [2], 6.4 µM. With `Cc1ccc(/C=C/S(N)(=O)=O)cc1C(=O)c1ccccc1`, the inhibition in [8] came out at 49%. In test [1], this compound had an IC50 of 19 µM. On to `CCc1cc(C(=O)c2ccccc2)ccc1/C=C/S(N)(=O)=O`, for which the values for the IC50 in [1] and in test [9] were 5.6 µM and 6.3 µM, respectively.

For `CCc1cc(/C=C/S(N)(=O)=O)cc(C(=O)c2ccccc2)c1`, the IC50 in test [10] amounted to 12 µM; in test [1] it was 0.2 µM; in test [11], 100 µM; in test [2], 18 µM. With `NS(=O)(=O)/C=C/c1ccccc1C(=O)c1ccccc1`, the values for the inhibition in [7] and in [3] were 43% and 39%, respectively. The like results for `CS(=O)(=O)/C=C/c1ccc(C(=O)c2ccccc2)cc1` were, in that order, 6% and 14%. Turning to `CN(C)C(=O)c1cc(/C=C/S(N)(=O)=O)cc(C(=O)c2ccccc2)c1`, the inhibition in test [4] was found to be 31%.

For `CCc1cc(/C=C/S(C)(=O)=O)cc(C(=O)c2ccccc2)c1`, the inhibition stood at 16% in [3] and 40% in test [4]. In the case of `Cc1cc(/C=C/S(N)(=O)=O)ccc1C(=O)c1ccccc1`, the figures for the inhibition in test [12] and in [3] were 41% and 0%, respectively. `CCc1cc(/C=C/C(=O)O)cc(C(=O)c2ccccc2)c1`: in [1], inhibition was half-maximal at 2.6 µM (IC50).
